Data reported in publication PMC11659602, “Discovering covalent cyclic peptide inhibitors of peptidyl arginine deiminase 4 (PADI4) using mRNA-display with a genetically encoded electrophilic warhead” (Communications Chemistry, 2024).
Entries after “also recorded” stand apart in the source; their conditions may differ. Like-named read-outs stand apart in the source and are kept apart here. Values belong to the molecule of their own block, whether it stands above or below them. Where a SMILES comes first, the peptide text is derived from it. Bridges are numbered along the chain shown (N, C = ends). [ ]: non-standard residue; d: D form. Orn(fluoroacetimidoyl) = N=C(CF)NCCC[C@H](N)C(=O)O

Legend:
PADI4 [1] = conditions: cited from earlier work
PADI4 C645A = target: T1, PADI4 C645A (Homo sapiens, UniProt Q9UM07, C645A); test: Intact mass spectrometry of covalent labelling; format: binding; conditions: 20 µM protein, 200 µM peptide, 1 hour at rt
T1 construct: PADI4 (residues 1-663); made in house; host or cells: E. coli NiCo21(DE3)
T1 sequence (Q9UM07 whole entry C645A, the tested form may be a part): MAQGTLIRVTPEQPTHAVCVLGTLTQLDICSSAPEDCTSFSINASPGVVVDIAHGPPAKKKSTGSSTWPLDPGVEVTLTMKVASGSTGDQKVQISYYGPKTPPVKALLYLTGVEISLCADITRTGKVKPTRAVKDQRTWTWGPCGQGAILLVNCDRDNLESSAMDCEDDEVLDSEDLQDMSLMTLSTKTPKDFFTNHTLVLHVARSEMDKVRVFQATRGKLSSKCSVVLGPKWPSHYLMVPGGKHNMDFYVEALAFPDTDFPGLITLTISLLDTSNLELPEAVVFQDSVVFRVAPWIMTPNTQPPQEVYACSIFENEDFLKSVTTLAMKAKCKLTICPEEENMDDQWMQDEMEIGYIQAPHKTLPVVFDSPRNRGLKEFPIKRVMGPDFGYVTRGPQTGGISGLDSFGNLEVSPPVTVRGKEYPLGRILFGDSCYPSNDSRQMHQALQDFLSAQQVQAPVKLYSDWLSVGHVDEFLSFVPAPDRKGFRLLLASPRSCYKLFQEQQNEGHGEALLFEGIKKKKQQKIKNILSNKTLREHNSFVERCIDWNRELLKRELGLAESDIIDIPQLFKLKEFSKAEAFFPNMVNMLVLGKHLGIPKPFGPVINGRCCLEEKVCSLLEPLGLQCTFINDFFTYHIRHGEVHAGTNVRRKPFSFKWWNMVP

PADI4 [2] = target: T2, PADI4 (Homo sapiens, UniProt Q9UM07); test: Surface plasmon resonance (SPR), single cycle kinetics; format: binding
T2 construct: His6; made in house
T2 sequence (Q9UM07 whole entry): as the sequence (Q9UM07 whole entry C645A, the tested form may be a part) above, with A645C counted along it
Method in brief: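 Biotinylated His-PADI4 captured on CAP chip (~3000 RU); peptides as 5-point 3-fold series in HEPES, 150 mM NaCl, 10 mM CaCl2, 0.1% DMSO, pH 7.5, triplicate. Warhead peptides fitted two-state (k-2 = 0; Ki = k-1/k+1, kinact = k+2); others 1:1.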

PADI4 [3] = target: T2, PADI4; test: Intact mass spectrometry of covalent labelling; format: binding; conditions: 20 µM PADI4, 200 µM peptide, 1 hour at rt
PADI4 [4] = target: T2, PADI4; test: COLDER inhibition assay, BAEE substrate, with or without 1 h preincubation; format: biochemical; conditions: for remaining activity at 0.003 µM: peptide 0.003 µM; for remaining activity at 0.01 µM: peptide 0.01 µM; for remaining activity at 3 µM: peptide 3 µM; for remaining activity at 30 µM: peptide 30 µM
Method in brief: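 50 nM His-PADI4 with peptide (final 0.1× the 0.03-500 µM series), 0.6 mg/mL BSA, 10 mM CaCl2 in 50 mM HEPES, 150 mM NaCl, 2 mM DTT, pH 7.5, with or without 1 h preincubation before 10 mM BAEE. After 30 min at rt, EDTA-quenched; citrulline read colorimetrically at 540 nm; mean ± SEM, ≥2 replicates.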

[5] = 1 h, T=1 (1 h preincubation), read-out: PADI4 activity, dose-response data of Figure S15 (individual replicates)
[6] = T=0 (no preincubation), read-out: PADI4 activity, dose-response data of Figure S15 (individual replicates)

SMILES: N=C(CF)NCCC[C@H](NC(=O)c1ccccc1)C(N)=O [Fluoroamidine]
selectivity for PADI4 over PADI1 (PADI4 [1]): limited selectivity

covalent labelling of PADI4 C645A by intact MS (PADI4 C645A): no labelling | k2 / kinact (PADI4 [2]; each replicate): 0.0029 s⁻¹ | k-1 (PADI4 [2]; each replicate): 0.00088 s⁻¹ | kinact (PADI4 [2]; each replicate, read-out: k2 / kinact): 0.0025 s⁻¹ | binding to PADI4 by SPR (PADI4 [2]; in words): among some of the poorest binders | kinact (PADI4 [2]; two-state reaction model, k+2, read-out: SPR kinact (converted)): 0.00267 s⁻¹ | Ki (PADI4 [2]; two-state reaction model, k-1/k+1): 4.3 ± 3.1 µM | remaining activity at 0.003 µM (PADI4 [4]; [5]): 108% | remaining activity at 0.01 µM (PADI4 [4]; [5]): 111% | remaining activity at 3 µM (PADI4 [4]; [5]): 87.4% | remaining activity at 30 µM (PADI4 [4]; [5]): 21.7% | remaining activity at 0.003 µM (PADI4 [4]; [6]): 103% | remaining activity at 0.01 µM (PADI4 [4]; [6]): 104% | remaining activity at 0.03 µM (PADI4 [4]; T=0 (no preincubation), peptide 0.03 µM, read-out: PADI4 activity, dose-response data of Figure S15 (individual replicates)): 101% | remaining activity at 0.1 µM (PADI4 [4]; T=0 (no preincubation), peptide 0.1 µM, read-out: PADI4 activity, dose-response data of Figure S15 (individual replicates)): 105% | remaining activity at 0.3 µM (PADI4 [4]; T=0 (no preincubation), peptide 0.3 µM, read-out: PADI4 activity, dose-response data of Figure S15 (individual replicates)): 105% | remaining activity at 1 µM (PADI4 [4]; T=0 (no preincubation), peptide 1 µM, read-out: PADI4 activity, dose-response data of Figure S15 (individual replicates)): 102% | remaining activity at 3 µM (PADI4 [4]; [6]): 101% | remaining activity at 10 µM (PADI4 [4]; T=0 (no preincubation), peptide 10 µM, read-out: PADI4 activity, dose-response data of Figure S15 (individual replicates)): 96.7% | remaining activity at 30 µM (PADI4 [4]; [6]): 86.3%
SMILES: CC[C@H](C)[C@@H]1NC(=O)[C@@H](Cc2ccc(O)cc2)NC(=O)CSC[C@@H](C(=O)NCC(N)=O)NC(=O)[C@H]([C@@H](C)O)NC(=O)[C@H](C(C)C)NC(=O)[C@H](CC(=O)O)NC(=O)[C@H](CCCNC(=N)CF)NC(=O)[C@H](CC(C)C)NC(=O)[C@H](CC(=O)O)NC(=O)[C@H](Cc2c[nH]c3ccccc23)NC1=O [cP4_13] ({CH2CO}-[dY]IWDL[Orn(fluoroacetimidoyl)]DVTCG-NH2; thioether N-10)
covalent labelling of PADI4 by intact MS (PADI4 [3]): single; also recorded: covalently bind to C645 of PADI4 | inhibition of PADI4 activity (PADI4 [4]; COLDER, in words): Neither peptide had strong inhibitory activity
